From publication PMC8662641, “Site-Specific Labeling of Endogenous Proteins Using CoLDR Chemistry” (Journal of the American Chemical Society, 2021)

Legend:
[1] = target: T1, BTK kinase domain (Homo sapiens, UniProt Q06187); experiment: Labeling of recombinant BTK by intact protein LC/MS; assay type: binding; design: BTK kinase domain was expressed and purified as previously reported; made in house; conditions: BTK 10.7 µM, 20 µM compound, 1 hour
[2] = target: T1, BTK kinase domain; experiment: Time-dependent labeling of BTK, kinact and Ki of 1b; assay type: binding; design: BTK kinase domain was expressed and purified as previously reported; made in house
Description: To assess the kinetic parameters of labeling, we performed a time-dependent incubation experiment of BTK (200 nM) with various concentrations of 1b (300–2000 nM, 20 mM Tris, pH 8, 14 °C; […]. page 9:
Figure S5. Determination of kinact and Ki parameters of CoLDR probe 1b. A. Depletion of unlabelled BTK (200 nM) […]
reaction was monitored by LC-MS. B. The rate constants as extrapolated from A. as a function of the concentration […]
(1 picture or pasted object on this page, not shown here)
Analysis was done using MaxQuant 1.6.3.4. The sequence of BTK was used for the analysis. The digestion enzyme was set to Trypsin with a maximum number of missed cleavages of 0.
Carbamidomethyl and the modification by the molecule were included as variable modifications on cysteine. The “Re-quantify” option was enabled. Contaminants were included. […] The triplicate measured for each compound (or for DMSO-treated protein) was analyzed separately.
Following MaxQuant analysis, only fully cleaved peptides were quantified and cysteine-containing peptides that were not modified by either iodoacetamide or compound were ignored.
The intensity for each peptide was calculated as the average of the three triplicates. […]
from the stock solution. […] The labeling percentage for a compound was determined as the labeling of a specific compound (alone or together with other compounds) divided by the overall detected protein species. […]

T1 sequence (Q06187 402-655 limits assumed): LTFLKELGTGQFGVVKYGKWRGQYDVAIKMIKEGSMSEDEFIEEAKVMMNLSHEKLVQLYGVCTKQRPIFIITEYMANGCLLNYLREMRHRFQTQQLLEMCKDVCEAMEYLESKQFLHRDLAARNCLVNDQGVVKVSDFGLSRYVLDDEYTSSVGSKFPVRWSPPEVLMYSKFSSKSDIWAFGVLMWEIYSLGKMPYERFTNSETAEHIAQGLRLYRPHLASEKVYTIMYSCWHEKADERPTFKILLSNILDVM

labeling of BTK (SPR sample preparation) [1]: 100%
reversible binding component weaker than ibrutinib ([2]; 1b Ki compared with reported ibrutinib Ki): about 5 fold
kinact ([2]; BTK 200 nM, 1b 300–2000 nM, 20 mM Tris, pH 8, 14 °C): 0.0278 s⁻¹
SMILES: C#CCCNC(=O)C(=C)CN1CCC[C@@H](n2nc(-c3ccc(Oc4ccccc4)cc3)c3c(N)ncnc32)C1 [1b]
